From patent US20250073184A1, “CANNABIGEROQUINONE COMPOUNDS, COMPOSITIONS INCLUDING SUCH COMPOUNDS, AND USES OF SUCH COMPOUNDS AND COMPOSITIONS” (Juva Life, Inc., priority 2021, published 2025)
Read-outs that look alike come from different tables or passages of the source.

How the values were obtained:
[1] = biological target: T1, recombinant human LOX-5 (Homo sapiens, UniProt P09917); assay: Biochemical LOX-5 assay
T1 construct: expressed in insect cells (Amino Acids 1-674) was obtained from Cayman; purchased Cayman 60402; host or cells: insect cells
T1 sequence (P09917 1-674): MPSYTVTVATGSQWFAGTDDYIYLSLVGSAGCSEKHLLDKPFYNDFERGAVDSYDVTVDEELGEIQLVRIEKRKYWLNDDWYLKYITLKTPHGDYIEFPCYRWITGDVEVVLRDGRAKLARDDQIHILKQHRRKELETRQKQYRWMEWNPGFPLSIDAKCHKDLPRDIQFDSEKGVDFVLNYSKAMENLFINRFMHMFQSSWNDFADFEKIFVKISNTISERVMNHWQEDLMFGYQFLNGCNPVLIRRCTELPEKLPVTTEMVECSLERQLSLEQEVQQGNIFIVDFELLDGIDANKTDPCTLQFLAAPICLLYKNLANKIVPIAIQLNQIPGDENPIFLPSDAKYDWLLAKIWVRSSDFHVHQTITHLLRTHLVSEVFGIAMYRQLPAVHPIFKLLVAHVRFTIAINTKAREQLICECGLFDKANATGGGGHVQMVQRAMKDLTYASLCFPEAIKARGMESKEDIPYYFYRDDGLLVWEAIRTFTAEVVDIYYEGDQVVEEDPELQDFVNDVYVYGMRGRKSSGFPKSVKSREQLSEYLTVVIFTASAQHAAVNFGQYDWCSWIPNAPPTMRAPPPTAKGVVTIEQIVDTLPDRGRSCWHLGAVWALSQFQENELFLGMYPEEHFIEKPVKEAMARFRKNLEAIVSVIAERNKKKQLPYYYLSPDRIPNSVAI
Description: The LOX-5 assay was performed in assay buffer comprising: 50 mM Tris (pH 7.5), 2 mM EDTA, 2 mM CaCl2), 3 uM AA, 10 uM ATP, 10 uM H2DCFDA, and recombinant enzyme (50 mU per 20 ul reaction, as defined by manufacturer). Serially diluted compounds were prepared in DMSO in Echo qualified 384 well plates. An assay buffer was then prepared without AA and ATP supplemented with 20 uM H2DCFDA. 10 uL of the supplemented buffer was dispensed into control (no enzyme) wells in the black 384 well assay plate. Next, a 2× enzyme solution was prepared, comprising 100 mU LOX-5 enzyme in the supplemented assay buffer. 10 uL of the 2× enzyme solution was then dispensed into test wells in the black 384 well assay plate. Serially diluted compounds were added to the assay plate by acoustic dispensing (Labcyte 550). Control wells received DMSO only.
Next, the 2× substrate was prepared to comprise 6 uM arachidonic acid and 20 uM ATP in the assay buffer. 10 uL of the 2× substrate was then added to all wells in the assay plate. The plate was incubated for 20 min.
[formula] • where RFU100% is fluorescence in control samples without compound, RFU0% is fluorescence in control samples without LOX-5, and RFUcompound fluorescence in a sample with compound.
(§1) The calculated %-Inh values were plotted against compound concentration. To determine EC50 values, dose-response curves were fitted by a 4-parameter sigmoid inhibition model using XLFit® software (IDBS).

[2] = biological target: T2, Recombinant human ALOX15 (Arachidonate 15-Lipoxygenase) (Homo sapiens, UniProt P16050); assay: Biochemical LOX-15 assay
T2 construct: full length encompassing amino acids 2-662(end); purchased BPS Biosciences 50220
T2 sequence (P16050 2-662): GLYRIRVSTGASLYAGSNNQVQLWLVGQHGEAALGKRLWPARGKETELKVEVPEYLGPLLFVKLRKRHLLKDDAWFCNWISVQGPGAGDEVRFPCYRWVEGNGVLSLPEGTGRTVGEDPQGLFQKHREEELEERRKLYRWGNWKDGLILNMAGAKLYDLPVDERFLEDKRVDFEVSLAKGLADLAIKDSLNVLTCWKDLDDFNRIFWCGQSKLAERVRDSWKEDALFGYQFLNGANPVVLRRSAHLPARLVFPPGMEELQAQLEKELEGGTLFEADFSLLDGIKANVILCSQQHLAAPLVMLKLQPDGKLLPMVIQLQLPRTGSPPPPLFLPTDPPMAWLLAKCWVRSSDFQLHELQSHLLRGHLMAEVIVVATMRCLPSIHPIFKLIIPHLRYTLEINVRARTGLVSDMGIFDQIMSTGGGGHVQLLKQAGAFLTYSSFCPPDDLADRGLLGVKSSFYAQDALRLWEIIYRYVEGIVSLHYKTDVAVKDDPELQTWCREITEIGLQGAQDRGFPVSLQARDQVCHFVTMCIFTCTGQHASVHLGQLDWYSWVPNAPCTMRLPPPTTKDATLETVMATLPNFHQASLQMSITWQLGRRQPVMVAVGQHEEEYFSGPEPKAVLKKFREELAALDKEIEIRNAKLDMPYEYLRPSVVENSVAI
Description: The LOX-15 assay was performed in assay buffer comprising: 50 mM Tris (pH 7.5), 5 uM DHR, 50 uM AA, and 50 nM recombinant enzyme. Serially diluted compounds were prepared in DMSO in Echo qualified 384 well plates. An assay buffer was then prepared […] supplemented 10 uM DHRA. 10 uL of the supplemented buffer was dispensed into control (no enzyme) wells in the black 384 well assay plate. Next, a 2× enzyme solution was prepared, comprising 100 nM LOX-15 enzyme in the supplemented assay buffer. 10 μL of the 2× enzyme solution was then dispensed into test wells in the black 384 well assay plate. Serially diluted compounds were added to the assay plate by acoustic dispensing (Labcyte 550). Control wells received DMSO only.
Next, the 2× substrate was prepared to comprise 100 uM arachidonic acid in the assay buffer. 10 uL of the 2× substrate was then added to all wells in the assay plate. The plate was incubated for 3 hours.
where RFU100% is fluorescence in control samples without compound, RFU0% is fluorescence in control samples without LOX-15, and RFUcompound fluorescence in a sample with compound.
as §1

[3] = recombinant enzyme, read-out: Inhibitory Activity EC50, 5-Lox
[4] = recombinant enzyme, read-out: Inhibitory Activity EC50, 15-Lox

Which EC50 [1, 3] does the source give for `CCCCCc1cc(O)c(C/C=C(\C)CCC=C(C)C)c(O)c1O` [Formula XXXIX] here?
The EC50 was 200 nM.

And the EC50 [2, 4]?
Its EC50 is 2820 nM.

Which EC50 [1] does the source give for `CCCCCc1cc(OC)c(C/C=C(\C)CCC=C(C)C)c(O)c1OC` [Formula XLII] here?
Its EC50 is 210 nM.

What about the EC50 [2] of the same molecule?
The EC50 was 18000 nM.

How did the EC50 [1] turn out when `CCCCCC1=C(NC)C(=O)C(C/C=C(\C)CCC=C(C)C)=C(O)C1=O` [Formula XLI] was run?
Its EC50 is 480 nM.

And the EC50 [2]?
The EC50 was 28800 nM.

Cannabigerol Quinone [Formula VI] was tested. Which “stronger inhibition for 5-Lox compared to Cox-2” value [1] did it give?
Its value is “over 200 fold”.

And the EC50 [1, 3]?
The EC50 was 270 nM.

What about the “stronger inhibition of 15-Lox compared to Cox-2” value [2] of the same molecule?
The value was “over 60 fold”.

What about the EC50 [2, 4] of the same molecule?
The EC50 was 980 nM.

Which results are given for `CCCCCc1cc(OC(C)=O)c(C/C=C(\C)CCC=C(C)C)c(O)c1OC(C)=O` [Formula XLIII]?
EC50 [1]: 340 nM; EC50 [2]: 8400 nM
